Among the data in ChEMBL document CHEMBL4431337, “Synthesis and bioactivities of novel pyrazole oxime derivatives containing a 1,2,3-thiadiazole moiety” (Bioorg Med Chem Lett, 2016) are mortality and IC50 values, retold here.

Molecules are shown by their SMILES.

What is called mortality is the share of the test organisms that died. In general, IC50 refers to the concentration that inhibits the measured activity by half.

The test system of assay [1] is Plutella xylostella. The assay can be described thus: Insecticidal activity against Plutella xylostella assessed as mortality at 100 ug/ml pre-incubated with cabbage leaves for 2 to 3 secs and measured 48 hrs post dose by leaf disc assay. The format is functional. Conditions: foliar.
The test system of assay [2] is Aphis craccivora. Nature of the assay: Insecticidal activity against Aphis craccivora assessed as mortality at 200 ug/ml pre-incubated with horsebean shoot with aphids for 2 secs and measured 48 hrs post dose by foliar application method. The class given is functional.
The test system of a further assay is Huh-7. The assay can be described thus: Cytotoxicity against human HuH7 cells assessed as inhibition of cell growth after 48 hrs by MTT assay. The format is functional, cell-based. Conditions: Huh-7, 48 h. (Tetrazolium dyes change colour on reduction, which living cells bring about.)
The subject of assay [3] is Plutella xylostella. The assay can be described thus: Insecticidal activity against Plutella xylostella assessed as mortality at 200 ug/ml pre-incubated with cabbage leaves for 2 to 3 secs and measured 48 hrs post dose by leaf disc assay. The class given is functional. The note with it: foliar.
A further assay deals with PANC-1. The assay can be described thus: Cytotoxicity against human PANC1 cells assessed as inhibition of cell growth after 48 hrs by MTT assay. The class given is functional, cell-based. The note with it: PANC-1, 48 h.
For the next assay, the system named is Tetranychus cinnabarinus. The assay can be described thus: Acaricidal activity against Tetranychus cinnabarinus assessed as mortality at 200 ug/ml pre-incubated with mite-infested Sieva bean plants for 3 secs and measured 48 hrs post dose. The class given is functional.
Another assay deals with HCT-116. The assay can be described thus: Cytotoxicity against human HCT116 cells assessed as inhibition of cell growth after 48 hrs by MTT assay. The format is functional, cell-based. The note with it: HCT-116, 48 h.
Another assay concerns SGC-7901. The assay can be described thus: Cytotoxicity against human SGC7901 cells assessed as inhibition of cell growth after 48 hrs by MTT assay. Conditions: SGC-7901, 48 h. The class given is functional, cell-based.
Assay [4] deals with Aphis craccivora. Nature of the assay: Insecticidal activity against Aphis craccivora assessed as mortality at 100 ug/ml pre-incubated with horsebean shoot with aphids for 2 secs and measured 48 hrs post dose by foliar application method. The class given is functional.
For assay [5], the system named is Aphis craccivora. The assay can be described thus: Insecticidal activity against Aphis craccivora assessed as mortality at 50 ug/ml pre-incubated with horsebean shoot with aphids for 2 secs and measured 48 hrs post dose by foliar application method. The format is functional.

Take `Cc1nnsc1CO/N=C/c1c(C)nn(C)c1Oc1ccccc1OC(F)(F)F`: the mortality at 100 µg/mL in the assay with Plutella xylostella [1] was 0%. Further, the mortality at 200 µg/mL in the assay with Aphis craccivora [2] was found to be 22%; in the assay on Plutella xylostella [3], 66%; with Tetranychus cinnabarinus, 0%. Moreover, the IC50 in the assay on Huh-7, in the assay on PANC-1, with HCT-116 and with SGC-7901 was over 50 µM in each case.

`CCCc1nnsc1CO/N=C/c1c(C)nn(C)c1Cl`: the mortality at 200 µg/mL in the assay on Aphis craccivora [2], in the assay on Plutella xylostella [3] and in the assay on Tetranychus cinnabarinus was 0% throughout. For the same compound, the IC50 with Huh-7, in the assay on PANC-1, in the assay with HCT-116 and in the assay on SGC-7901 was over 50 µM throughout.

As to `Cc1nnsc1CO/N=C/c1c(C)nn(C)c1Oc1cc(F)cc(F)c1`, the values for the mortality at 100 µg/mL with Aphis craccivora [4] and with Plutella xylostella [1] were 75% and 0%, respectively. Also, the mortality at 50 µg/mL in the assay with Aphis craccivora [5] worked out at 45%. For the same compound, the results for the mortality at 200 µg/mL with Aphis craccivora [2], with Plutella xylostella [3] and with Tetranychus cinnabarinus were 90%, 100% and 0%, respectively. Also, the concentration for half-maximal inhibition (IC50) was over 50 µM with Huh-7, over 50 µM in the assay with PANC-1, 8.12 µM in the assay on HCT-116 and 9.41 µM with SGC-7901.

As to `CCCc1nnsc1CO/N=C/c1c(C)nn(C)c1Oc1ccccc1C`, the mortality at 200 µg/mL in the assay on Aphis craccivora [2], in the assay with Plutella xylostella [3] and in the assay on Tetranychus cinnabarinus was 0% throughout. Moreover, the IC50 in the assay with Huh-7 was over 50 µM; in the assay on PANC-1, over 50 µM; in the assay with HCT-116, 15.7 µM; in the assay on SGC-7901, 16.3 µM.

Take `CCc1nnsc1CO/N=C/c1c(C)nn(C)c1Oc1ccccc1Cl`: the mortality at 200 µg/mL with Aphis craccivora [2], with Plutella xylostella [3] and in the assay with Tetranychus cinnabarinus was 0% throughout. Further, the half-maximal inhibitory concentration (IC50) with Huh-7 was over 50 µM; in the assay on PANC-1 it was over 50 µM; in the assay with HCT-116, 17.6 µM; in the assay on SGC-7901, 15.8 µM.

Consider `Cc1nnsc1CO/N=C/c1c(C)nn(C)c1Oc1ccc(C(C)(C)C)cc1`, for which the mortality at 100 µg/mL amounted to 80% in the assay on Aphis craccivora [4] and 0% in the assay with Plutella xylostella [1]. Further, the mortality at 50 µg/mL with Aphis craccivora [5] amounted to 50%. For the same compound, the mortality at 200 µg/mL with Aphis craccivora [2] is 95%; in the assay on Plutella xylostella [3] it was 100%; in the assay on Tetranychus cinnabarinus, 0%. Besides, the IC50 with Huh-7 was over 50 µM; with PANC-1, over 50 µM; in the assay with HCT-116 it was 33.5 µM; in the assay with SGC-7901 it was over 50 µM.

Take `CCc1nnsc1CO/N=C/c1c(C)nn(C)c1Cl`: the mortality at 200 µg/mL with Aphis craccivora [2], in the assay with Plutella xylostella [3] and in the assay on Tetranychus cinnabarinus was 0% throughout. Also, the IC50 with Huh-7, in the assay on PANC-1, in the assay on HCT-116 and in the assay with SGC-7901 was over 50 µM in each case.

For `CCCc1nnsc1CO/N=C/c1c(C)nn(C)c1Oc1ccccc1Cl`, the mortality at 200 µg/mL with Aphis craccivora [2], in the assay with Plutella xylostella [3] and in the assay on Tetranychus cinnabarinus was 0% in each case. The IC50 in the assay on Huh-7 was over 50 µM; with PANC-1, over 50 µM; in the assay on HCT-116 it was 16.4 µM; in the assay with SGC-7901, 17.6 µM.

For the compound `Cc1nnsc1CO/N=C/c1c(C)nn(C)c1Oc1ccc(OC(F)(F)F)cc1`, the mortality at 100 µg/mL with Aphis craccivora [4] is 85%; with Plutella xylostella [1] it was 0%. In the assay with Aphis craccivora [5], the mortality at 50 µg/mL was 59%. Besides, the mortality at 200 µg/mL in the assay on Aphis craccivora [2] stood at 100%; in the assay on Plutella xylostella [3] it was 50%; in the assay with Tetranychus cinnabarinus, 80%. In addition, the IC50 in the assay with Huh-7 is over 50 µM; in the assay on PANC-1, over 50 µM; in the assay on HCT-116, 12.8 µM; in the assay on SGC-7901 it was 11.5 µM.

In the case of `Cc1nnsc1CO/N=C/c1c(C)nn(C)c1Oc1cccc(C(F)(F)F)c1`, in the assay with Aphis craccivora [4], the mortality at 100 µg/mL turned out to be 55%. In addition, the mortality at 50 µg/mL in the assay on Aphis craccivora [5] was 31%. The mortality at 200 µg/mL in the assay with Aphis craccivora [2] was found to be 62%; in the assay on Plutella xylostella [3], 45%; in the assay with Tetranychus cinnabarinus it was 0%. Further, the IC50 was over 50 µM in the assay on Huh-7, over 50 µM with PANC-1, 10.3 µM in the assay with HCT-116 and 12.4 µM in the assay on SGC-7901.

As for `CCCc1nnsc1CO/N=C/c1c(C)nn(C)c1Oc1ccc(Cl)cc1`, the mortality at 200 µg/mL with Aphis craccivora [2], in the assay with Plutella xylostella [3] and in the assay on Tetranychus cinnabarinus was 0% each time. Also, the half-maximal inhibitory concentration (IC50) in the assay on Huh-7 was over 50 µM; in the assay with PANC-1 it was over 50 µM; in the assay on HCT-116, 19.2 µM; with SGC-7901, 18.6 µM.

As to `CNC(=O)c1cc(Oc2ccc(NC(=O)Nc3ccc(Cl)c(C(F)(F)F)c3)cc2)ccn1` [SORAFENIB], the IC50 with PANC-1 was 11.5 µM.

`Cc1ccc(Oc2c(/C=N/OCc3snnc3C)c(C)nn2C)cc1`: the mortality at 100 µg/mL in the assay with Aphis craccivora [4] turned out to be 90%; in the assay with Plutella xylostella [1] it was 0%. Also, in the assay on Aphis craccivora [5], the mortality at 50 µg/mL was 58%. Further, the mortality at 200 µg/mL with Aphis craccivora [2] was determined as 100%; with Plutella xylostella [3], 100%; with Tetranychus cinnabarinus it was 0%. Besides, the IC50 with Huh-7 is over 50 µM; with PANC-1, over 50 µM; with HCT-116 it was 13.8 µM; in the assay on SGC-7901 it was 12.8 µM.

In the case of `O=c1[nH]cc(F)c(=O)[nH]1` [FLUOROURACIL], the figures for the IC50 with HCT-116 and with SGC-7901 were 29.5 µM and 56.1 µM, respectively.

On to `CCc1nnsc1CO/N=C/c1c(C)nn(C)c1Oc1ccc(OC(F)(F)F)cc1`, for which the mortality at 200 µg/mL with Aphis craccivora [2], in the assay with Plutella xylostella [3] and with Tetranychus cinnabarinus was 0% each time. The 50% inhibitory concentration (IC50) in the assay with Huh-7 was over 50 µM; in the assay with PANC-1 it was over 50 µM; in the assay with HCT-116 it was 12.5 µM; in the assay with SGC-7901, 13.6 µM.

As to `Cc1nnsc1CO/N=C/c1c(C)nn(C)c1Oc1cccc(F)c1F`, the mortality at 100 µg/mL in the assay with Plutella xylostella [1] stood at 0%. The mortality at 200 µg/mL in the assay with Aphis craccivora [2] was 19%; with Plutella xylostella [3], 100%; with Tetranychus cinnabarinus, 0%. Besides, the IC50 is 10.2 µM in the assay on Huh-7, 12.2 µM in the assay on PANC-1, 6.56 µM with HCT-116 and 25.7 µM with SGC-7901.

On to `CCc1nnsc1CO/N=C/c1c(C)nn(C)c1Oc1ccc(C)cc1`, for which the mortality at 200 µg/mL with Aphis craccivora [2], with Plutella xylostella [3] and in the assay with Tetranychus cinnabarinus was 0% each time. In addition, the IC50 in the assay on Huh-7 is over 50 µM; in the assay with PANC-1 it was over 50 µM; in the assay on HCT-116, over 50 µM; in the assay with SGC-7901 it was 19.8 µM.

As for `O=[N+]([O-])/N=C1\NCCN1Cc1ccc(Cl)nc1` [IMIDACLOPRID], the mortality at 100 µg/mL in the assay with Aphis craccivora [4] was determined as 100%. The mortality at 50 µg/mL in the assay on Aphis craccivora [5] was found to be 100%. Besides, in the assay on Aphis craccivora [2], the mortality at 200 µg/mL came out at 100%.

Consider `Cc1nnsc1CO/N=C/c1c(C)nn(C)c1Oc1ccccc1Cl`, for which, in the assay with Plutella xylostella [1], the mortality at 100 µg/mL is 0%. Moreover, the mortality at 200 µg/mL in the assay with Aphis craccivora [2] was determined as 15%; with Plutella xylostella [3], 100%; in the assay with Tetranychus cinnabarinus it was 0%. Further, the IC50 in the assay with Huh-7 is over 50 µM; with PANC-1, over 50 µM; in the assay on HCT-116 it was 42.5 µM; in the assay with SGC-7901, over 50 µM.

On to `CCCc1nnsc1CO/N=C/c1c(C)nn(C)c1Oc1ccc(F)cc1`, for which the mortality at 200 µg/mL in the assay with Aphis craccivora [2], with Plutella xylostella [3] and in the assay on Tetranychus cinnabarinus was 0% in each case. Further, the IC50 with Huh-7 was over 50 µM; in the assay with PANC-1 it was over 50 µM; in the assay with HCT-116, 7.06 µM; in the assay on SGC-7901, 8.64 µM.
